Key:
HEK cells = test: Confocal and two-photon fluorescence imaging of H2O2 in live HEK cells; conditions: for intracellular background fluorescence of probe-loaded cells before H2O2: 5-10 μM probe, 2-10 min at 25° C.; for intracellular fluorescence after addition of H2O2: probe-loaded cells, 10-100 μM H2O2
Method: (a) Fluorescence image of HEK cells incubated with 5 μM PF1 for 5 min at 25° C. (b) Fluorescence image of PF1-stained HEK cells treated with 100 μM H2O2 for 11 min at 25° C. Excitation was provided at 488 nm, and emission was collected in a window from 505 to 580 nm. Scale bar=27 μm.
(a) Fluorescence image of HEK cells incubated with 10 μM PR1 for 10 min at 25° C. (b) Fluorescence image of PR1-stained HEK cells treated with 100 μM H2O2 for 30 min at 25° C. Excitation was provided at 543 nm, and emission was collected in a window from 548 to 644 nm. Scale bar=18 μm.
(a) Fluorescence image of HEK cells incubated with 10 μM PX1 for 2-3 min at 25° C. (b) Fluorescence image of PX1-stained HEK cells treated with 100 μM H2O2 for 30 min at 25° C. Two-photon excitation was provided at 704 nm, and emission was collected in a window from 420 to 500 nm. Scale bar=18 μm.
HEK 293T cells were cultured in Dulbecco's Modified Eagle Medium (DMEM, Invitrogen, Carlsbad, Calif.) supplemented with 10% Fetal Bovine Serum (FBS, Invitrogen), glutamine (2 mM), and penicillin/streptomycin (50 μg/ml, Invitrogen). One day before imaging, cells were passed and plated on 18-mm glass coverslips coated with poly-L-lysine (50 μg/ml, Sigma, St. Louis, Mo.). Immediately before the experiments, cells were washed with PBS buffer, incubated with the probe in PBS, and imaged.
Confocal fluorescence imaging was performed with a Zeiss LSM510 META laser scanning microscope containing an Axioplan 2 MOT upright microscope and a 40× water-immersion objective lens. Excitation of PF1-loaded cells at 488 nm was carried out with an argon ion laser, and emission was Collected in a window from 505 nm to 580 nm using a META detection system. Excitation of PR1-loaded cells at 543 nm was carried out with a HeNe laser, and emission was collected in a window from 548 nm to 644 nm using a META detector. PF1 or PR1 were incubated with live cell samples for 5 to 10 min. Addition of H2O2 (10 to 100 μM) to cell samples was performed directly on the microscope stage by bath application to the media.
Two-photon fluorescence imaging of PX1 was carried out using an inverted Zeiss LSM510 Axiovert 200M microscope with a NeoFLUAR 40×/1.3 NA oil-immersion objective lens. Samples were excited by 704-nm pulses from a mode-locked Ti:Sapphire laser (Tsunami, SpectraPhysics, 120-150 fs pulse width, 80 MHz repetition rate). The emission light was filtered with a 80-nm wide bandpass filter centered at 460 nm (460BP40, Chroma) and detected with the non-descanned detector (NDD) of the LSM510.

[1] = test system: embryonic rat hippocampal neurons (E18); test: Fluorescence imaging of H2O2 in cultured hippocampal neurons; assay type: cell-based
Method: Hippocampal primary cultures were prepared from embryonic day 18 (E18) rat embryos according to a previously reported protocol. Briefly, hippocampi were dissociated by treatment with trypsin for 20 min at 37° C. followed by washing. The neuronal cells were plated on glass coverslips (Carolina Biological, Burlington, N.C.) coated with poly-L-lysine ([…], Sigma) and cultured in neurobasal medium supplemented with 2 mM Glutamax and 2% B-27 (Invitrogen). After 10 days in vitro, the cultures were washed with PBS, incubated with the probe in PBS, and imaged.
Finally, the successful use of the Peroxysensor probes for monitoring changes in intracellular H2O2 concentrations in mammalian cell lines using either confocal or two-photon microscopy led us to evaluate their utility in primary culture systems. […] Control neurons without PF1 and/or H2O2 treatment show no detectable fluorescence enhancements. These experiments confirm that PF1 can be used in living neurons to detect oxidative stress events.

[2] = Fluorescence response to various ROS (H2O2 selectivity); conditions: 100 μM ROS, 20 mM HEPES, pH 7, 25° C.
Method: (§1) FIG. 7 is the fluorescence response of 5 μM PF1 to various ROS (10 mM O2^−, 100 μM for all other ROS). .OH and .Ot-Bu were generated by reaction of Fe^2+ with H2O2 or tert-butyl hydroperoxide (TBHP), respectively. NO was delivered using S-nitrosocysteine (SNOC). Spectra were acquired in 20 mM HEPES, pH 7, and all data were obtained after incubation with the appropriate ROS at 25° C. for 1 h. Collected emission was integrated between 460 and 700 nm (λexc=450 nm).
FIG. 8 is the fluorescence response of 5 μM PR1 to various ROS (10 mM O2^−, 100 μM for all other ROS). .OH and .O^tBu were generated by reaction of Fe^2+ with H2O2 or tert-butyl hydroperoxide (TBHP), respectively. NO was delivered using S-nitrosocysteine (SNOC). Spectra were acquired in 20 mM HEPES, pH 7, and all data were obtained after incubation with the appropriate ROS at 25° C. for 30 min. Collected emission was integrated between 570 and 800 nm (λexc=560 nm).
as §1, with “FIG. 9” for “FIG. 7”, “of 10” for “of 5”, “μM PX1” for “μM PF1”, “between 370” for “between 460”, “and 600” for “and 700”, “nm (λexc=350” for “nm (λexc=450”
(§2) Millipore water was used to prepare all aqueous solutions. All spectroscopic measurements were performed in 20 mM HEPES buffer, pH 7. Absorption spectra were recorded using a Varian Cary 50 spectrophotometer (Walnut Creek, Calif.). Fluorescence spectra were recorded using a Photon Technology International Quanta Master 4 L-format scanning spectrofluorometer (Lawrenceville, N.J.) equipped with an LPS-220B 75-W xenon lamp and power supply, A-1010B lamp housing with integrated igniter, switchable 814 photon-counting/analog photomultiplier detection unit, and MD5020 motor driver. Samples for absorption and fluorescence measurements were contained in 1-cm×1-cm quartz cuvettes (1.4- or 3.5-mL volume, Starna, Atascadero, Calif.).
FIG. 7, FIG. 8 and FIG. 9 compare the relative reactivities of boronate-based PF1, PR1, and PX1, respectively, toward various ROS.

[3] = Fluorescence response to H2O2 in 20 mM HEPES, pH 7
Method: as §2
The Peroxysensor reagents were evaluated under simulated physiological conditions (20 mM HEPES buffer, pH 7). […] FIG. 4, FIG. 5 and FIG. 6 show the fluorescence responses of PF1, PR1, and PX1, respectively, to H2O2.

[4] = Absorption and emission properties, fluorescence quantum yield; assay type: physicochemical; conditions: absorption maximum 350 nm; 20 mM HEPES, pH 7
Method: as §2
as §2, with “recorded on” for “recorded using”, “Creek, Calif.) and fluorescence” for “Creek, Calif.). Fluorescence”, “and emission” for “and fluorescence”, “cuvettes (1.5-mL” for “cuvettes (1.4- or 3.5-mL”, “Calif.). Fluorescence quantum yields were determined by reference to fluorescein in 0.1M NaOH (Φ=0.95).” for “Calif.).”

## CC1(C)OB(c2ccc3c(c2)Oc2cc(B4OC(C)(C)C(C)(C)O4)ccc2C32OC(=O)c3ccccc32)OC1(C)C [PF1, 3′,6″-Bis(pinacolatoboron)fluoran]
HEK cells
  cell viability during imaging: cells are viable throughout the imaging experiments
  membrane permeability / cell entry: can passively enter live cells
  intracellular background fluorescence of probe-loaded cells before H2O2: negligible intracellular background fluorescence
  intracellular fluorescence after addition of H2O2: prompt increases in intracellular green fluorescence
[1]; 10 μM probe, 5 min at 25° C.
  background fluorescence of probe-loaded neurons: negligible background fluorescence
[1]; 300 μM H2O2 for 30 min at 25° C.
  intracellular fluorescence under simulated oxidative stress: notable increases in intracellular fluorescence
[2]; .OH from Fe2+ with H2O2
  higher response for H2O2 over .OH: > 3 fold
[2]; .OtBu from Fe2+ with TBHP
  higher response for H2O2 over .OtBu: > 15 fold

## CC1(C)OB(c2ccc3c(=O)c4ccc(B5OC(C)(C)C(C)(C)O5)cc4oc3c2)OC1(C)C [PX1, 3,6-Bis(pinacolatoboron)xanthone]
HEK cells
  intracellular background fluorescence of probe-loaded cells before H2O2: minimal intracellular background fluorescence
  intracellular fluorescence after addition of H2O2: Prompt increases in intracellular blue fluorescence
[3]
  increase in integrated fluorescence intensity / integrated emission on reaction with H2O2 (dynamic range): 52 fold
[4]
  extinction coefficient ε at 350 nm: 4700 M⁻¹ cm⁻¹
[2]; NO delivered using SNOC
  higher response for H2O2 over NO: ca. 6 fold
[2]
  higher response for H2O2 over tert-butyl hydroperoxide (TBHP): > 100 fold

Reference: patent publication US8791258B2, “Pro-fluorescent probes” (The Regents of the University of California, priority 2008, dated 2014)
